Assay results reported in patent US20090076050A1, “SYNERGISTIC TUMOR-KILLING EFFECT OF RADIATION AND BERBERINE COMBINED TREATMENT IN LUNG CANCER” (CHUNG SHAN MEDICAL U., priority 2007, published 2009).

Key:
[1] = blood biochemical analysis in LLC model mice; format: in vivo, C57BL/6 mice; details: all six groups incl. berberine 1.0, 2.0 mg/kg i.p. alone or with IR, end of experiment
Procedure: (§1) The application of the additive cytotoxicity of IR combined with berberine in cancer treatment was further evidenced in an in vivo Lewis lung carcinoma (LLC) model in mice (Camphausen K, et al. Cancer Res 2001; 61:2207-11). Male C57BL/6 mice aged 4-6 weeks (National Taiwan University Animal Center, Taiwan) were used. To form a tumor xenograft, Lewis lung cells (2×10^6) were injected s.c. into the right hind limb. Animals were randomized into six groups: control, irradiation (IR) alone, berberine (1.0, 2.0 mg/kg) alone, and IR combined with berberine (1.0, 2.0 mg/kg). For tumor irradiation, mice were immobilized in a customized harness that exposed the right hind leg while shielding the remainder of the body by 3.5 cm of lead. Mice were exposed to a single dose of 8 Gy. […] To obtain tumor growth curves, three orthogonal tumor diameters were measured every 4-day intervals with a vernier caliper, and the mean values were calculated. […] Primary tumor growth delay was measured by calipers in two dimensions, and the volumes were calculated according to the formula: tumor volume=(width) 2×length×0.52. […] The tumor volume at the primary site of each group was measured before treatment, and the average tumor volume was designated as T0. When the animals were sacrificed at the end of experiment, the xenografts were removed, and the tumor volume was determined and presented as fold of T0. […]

beclin-1 = experiment: immunohistochemistry of beclin-1 in xenograft; format: in vivo, C57BL/6 mice; details: co-treatment groups (berberine + IR)
Procedure: as §1

A549 cells = experiment: apoptosis hallmarks: DAPI stain, DNA electrophoresis, immunoblotting of caspase-3 and PARP; format: cell-based, human; details: 24 h
Procedure: (§2) The role of apoptosis in the sensitivity of A549 cells to IR induced by berberine was further clarified by DAPI stain. DNA extraction and electrophoresis on agarose gel were carried out as described previously (Solary E, et al. Therapie 2001; 56:511-18). After the indicated treatments, cells were fixed with 3 mL of 4% paraformaldehyde. To stain the cells, 500 μL of a 0.5 μg/mL chilled solution of DAPI (Invitrogen) stain was added and allowed to sit for 5 min. The cells were then rinsed with PBS solution and counted under a fluorescent microscope. For positive control of DNA fragmentation and DAPI stain, A549 cells were treated with 30 μM etoposide for 24 h. […] This contention was further confirmed by the lack of apoptotic DNA fragmentation and activation of caspase-3 and poly-(ADP-ribose) polymerases (PARP) as analyzed by DNA electrophoresis and immunoblotting (FIG. 3B, 3C). After the indicated treatment, the resultant supernatants were separated in 12%˜18% polyacrylamide gels. The blot was incubated with a polyclonal antibody against LC3 (gift from T. Yoshimori), PARP, caspase-3, bcl-2, beclin-1 and β-actin (Santa Cruz biotechnology, USA) for 2 h, and then with an appropriate peroxidase-conjugated secondary antibody (Sigma) for 1 h at 37° C.

LC3-II in A549 cells = experiment: immunoblotting for LC3-I, LC3-II; format: cell-based, human; details: 24 h after IR combined with increasing concentrations of berberine
Procedure: as §2, with “C. […] LC3 is localized in autophagosome membranes during amino acid starvation-induced autophagy (Mizushima N, et al. J Cell Biol 2001; 152:657-68.). […]” for “C.”

In the case of `COc1ccc2cc3[n+](cc2c1OC)CCc1cc2c(cc1-3)OCO2` [berberine, Berberine], the “serum levels of AST, ALT, urea nitrogen, creatinine, complete blood cell counts, triglyceride and total cholesterol” value [1] is reported as “no difference among groups”, the “beclin-1 protein expression in xenograft” value (beclin-1) is reported as “remarkable increased” and the “apoptotic DNA fragmentation and activation of caspase-3 and PARP” value (A549 cells; berberine with IR, DNA electrophoresis and immunoblotting (FIG. 3B, 3C)) is reported as “lack”. The “number of apoptotic cells (DAPI stain)” value (A549 cells; co-treatment of berberine (>5.0 μM) with IR (6 Gy)) was “increased only slightly” and the “expression of LC3-II” value (LC3-II in A549 cells) was “increased dose-dependently”.
